ChEMBL document CHEMBL3875182 (Bioorg Med Chem, 2017)
In brackets after ≈: the same amount, converted by molar mass.

Assays:
[1] = tested on: Mycobacterium tuberculosis; test: Antibacterial activity against rifampin-resistant Mycobacterium tuberculosis after 8 to 9 days by BacT/Alert MP bottle assay; assay type: functional
[2] = tested on: Mycobacterium tuberculosis; test: Antibacterial activity against isoniazid/rifampin-resistant Mycobacterium tuberculosis after 8 to 9 days by BacT/Alert MP bottle assay; assay type: functional

| Compound | MIC [1] [µg/mL] | MIC [2] [µg/mL] |
| --- | --- | --- |
| COc1ccc(C2=Nn3c(nnc3-c3ccncc3)SC2)cc1 | 2 (≈ 6.18 µM) | 4 (≈ 12.4 µM) |
| O=[N+]([O-])c1ccc(C2=Nn3c(nnc3-c3ccc(Br)cc3)SC2)cc1 | 0.25 (≈ 0.601 µM) | 2 (≈ 4.8 µM) |
| c1ccc(C2=Nn3c(nnc3-c3ccccc3)SC2)cc1 | 2 (≈ 6.84 µM) | 4 (≈ 13.7 µM) |
| O=[N+]([O-])c1ccc(C2=Nn3c(Cc4ccc5ccccc5c4)nnc3SC2)cc1 | 4 (≈ 9.96 µM) | 4 (≈ 9.96 µM) |
| O=[N+]([O-])c1ccc(C2=Nn3c(nnc3-c3ccncc3F)SC2)cc1 | 2 (≈ 5.61 µM) | 4 (≈ 11.2 µM) |
| Fc1ccc(-c2nnc3sc(COc4ccccc4)nn23)cc1 | 8 (≈ 24.5 µM) | 8 (≈ 24.5 µM) |
| Brc1ccc(-c2nnc3n2N=C(c2ccccc2)CS3)cc1 | 1 (≈ 2.69 µM) | 2 (≈ 5.39 µM) |
| NNC(=O)c1ccncc1 [ISONIAZID] | 1 (≈ 7.29 µM) | 4 (≈ 29.2 µM) |
| CO[C@H]1/C=C/O[C@@]2(C)Oc3c(C)c(O)c4c(O)c(c(/C=N/N5CCN(C)CC5)c(O)c4c3C2=O)NC(=O)/C(C)=C\C=C\[C@H](C)[C@H](O)[C@@H](C)[C@@H](O)[C@@H](C)[C@H](OC(C)=O)[C@@H]1C [RIFAMPIN] | 16 (≈ 19.4 µM) | ≥ 16 |
